PubChem BioAssay AID328 (DTP/NCI, 2004)
Several values for one entry are separate records, joined by “and”; a condition that tells them apart may be missing. Equal values may be shown once. Inconclusive results and toxic doses are left out.

Test system: BDF1 mice, P388 leukemia ip, median survival T/C
Experiment: NCI In Vivo Anticancer Drug Screen. Data for tumor model P388 Leukemia (intraperitoneal) in B6D2F1 (BDF1) mice
Conditions: endpoint: median survival time, higher = longer survival
In short: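 T/C = treated-group survival ÷ vehicle-control survival; tumour transplanted into mice before dosing.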

[1] = dose: 200.0 mg/kg/injection, schedule: Q01DX009 (ip), vehicle: saline
[2] = dose: 100.0 mg/kg/injection, schedule: Q01DX009 (ip), vehicle: Klucel (hydroxypropylcellulose) (HPC)
[3] = dose: 100.0 mg/kg/injection, schedule: Q04DX003 (ip), vehicle: Klucel (hydroxypropylcellulose) (HPC)
[4] = dose: 200.0 mg/kg/injection, schedule: Q01DX009 (ip), vehicle: Klucel (hydroxypropylcellulose) (HPC)
[5] = dose: 200.0 mg/kg/injection, schedule: Q04DX003 (ip), vehicle: Klucel (hydroxypropylcellulose) (HPC)
[6] = dose: 400.0 mg/kg/injection, schedule: Q04DX003 (ip), vehicle: Klucel (hydroxypropylcellulose) (HPC)
[7] = dose: 12.5 mg/kg/injection, schedule: Q01DX009 (ip), vehicle: saline
[8] = dose: 25.0 mg/kg/injection, schedule: Q01DX009 (ip), vehicle: saline
[9] = dose: 50.0 mg/kg/injection, schedule: Q01DX009 (ip), vehicle: saline
[10] = dose: 100.0 mg/kg/injection, schedule: Q01DX009 (ip), vehicle: saline
[11] = dose: 6.25 mg/kg/injection, schedule: Q01DX009 (ip), vehicle: saline
[12] = dose: 400.0 mg/kg/injection, schedule: Q01DX009 (ip), vehicle: saline with Tween-80
[13] = dose: 25.0 mg/kg/injection, schedule: Q04DX003 (ip), vehicle: saline with Tween-80
[14] = dose: 100.0 mg/kg/injection, schedule: Q01DX009 (ip), vehicle: saline with Tween-80
[15] = dose: 100.0 mg/kg/injection, schedule: Q04DX003 (ip), vehicle: saline with Tween-80
[16] = dose: 200.0 mg/kg/injection, schedule: Q01DX009 (ip), vehicle: saline with Tween-80
[17] = dose: 200.0 mg/kg/injection, schedule: Q04DX003 (ip), vehicle: saline with Tween-80

## COc1cc2cc3cc4cc(OC)c(OC)cc4c(C)[n+]3cc2cc1OC (tested in a mixture with another compound)
dose: 10.0 mg/kg/injection, schedule: Q01DX009 (ip), vehicle: Klucel (hydroxypropylcellulose) (HPC)
  T/C: 163 % of control
dose: 20.0 mg/kg/injection, schedule: Q01DX009 (ip), vehicle: Klucel (hydroxypropylcellulose) (HPC)
  T/C: 155 % of control
dose: 20.0 mg/kg/injection, schedule: Q01DX009 (ip), vehicle: saline
  T/C: 180 % of control
dose: 40.0 mg/kg/injection, schedule: Q01DX009 (ip), vehicle: Klucel (hydroxypropylcellulose) (HPC)
  T/C: 163 % of control
dose: 40.0 mg/kg/injection, schedule: Q01DX009 (ip), vehicle: saline
  T/C: 150 % of control
dose: 40.0 mg/kg/injection, schedule: Q04DX003 (ip), vehicle: saline
  T/C: 154 % of control and 166 % of control
dose: 80.0 mg/kg/injection, schedule: Q01DX009 (ip), vehicle: Klucel (hydroxypropylcellulose) (HPC)
  T/C: 163 % of control
dose: 80.0 mg/kg/injection, schedule: Q01DX009 (ip), vehicle: saline
  T/C: 180 % of control
dose: 80.0 mg/kg/injection, schedule: Q04DX003 (ip), vehicle: saline
  T/C: 157 % of control
dose: 120.0 mg/kg/injection, schedule: Q01DX009 (ip), vehicle: saline
  T/C: 150 % of control
dose: 160.0 mg/kg/injection, schedule: Q01DX009 (ip), vehicle: Klucel (hydroxypropylcellulose) (HPC)
  T/C: 154 % of control
dose: 160.0 mg/kg/injection, schedule: Q01DX009 (ip), vehicle: saline
  T/C: 200 % of control
dose: 160.0 mg/kg/injection, schedule: Q04DX003 (ip), vehicle: saline
  T/C: 154 % of control
dose: 168.0 mg/kg/injection, schedule: Q04DX003 (ip), vehicle: saline
  T/C: 99 % of control
dose: 250.0 mg/kg/injection, schedule: Q04DX003 (ip), vehicle: saline
  T/C: 92 % of control

## NC(N)=NO
dose: 9.37 mg/kg/injection, schedule: Q01DX009 (ip), vehicle: saline
  T/C: 91 % of control
dose: 9.38 mg/kg/injection, schedule: Q01DX009 (ip), vehicle: saline
  T/C: 90 % of control
dose: 18.75 mg/kg/injection, schedule: Q01DX009 (ip), vehicle: saline
  T/C: 100 % of control and 103 % of control
dose: 37.5 mg/kg/injection, schedule: Q01DX009 (ip), vehicle: saline
  T/C: 112 % of control and 115 % of control
[1]
  T/C: 166 % of control and 168 % of control
dose: 300.0 mg/kg/injection, schedule: Q01DX009 (ip), vehicle: saline
  T/C: 158 % of control and 163 % of control
dose: 400.0 mg/kg/injection, schedule: Q01DX009 (ip), vehicle: saline
  T/C: 195 % of control and 198 % of control

## CCCCC(CC)CC1CCCCC1O (configuration not stated)
[2]
  T/C: 87 % of control
[3]
  T/C: 122 % of control
[4]
  T/C: 91 % of control
[5]
  T/C: 109 % of control
[6]
  T/C: 95 % of control

## CCCCCCCCC(O)CCCCC (configuration not stated)
[3]
  T/C: 108 % of control
[5]
  T/C: 87 % of control
[6]
  T/C: 95 % of control

## O=C(/C=C/c1ccncc1)c1cccc2ccccc12
[7]
  T/C: 102 % of control
[8]
  T/C: 108 % of control
[9]
  T/C: 100 % of control
[10]
  T/C: 116 % of control

## OCc1cccc(F)c1
[10]
  T/C: 96 % of control
dose: 100.0 mg/kg/injection, schedule: Q04DX003 (ip), vehicle: saline
  T/C: 109 % of control
[1]
  T/C: 107 % of control
dose: 200.0 mg/kg/injection, schedule: Q04DX003 (ip), vehicle: saline
  T/C: 109 % of control
dose: 400.0 mg/kg/injection, schedule: Q04DX003 (ip), vehicle: saline
  T/C: 104 % of control

## CCN(CC)C(N)=Nc1ccc(NC(=O)c2ccc(C(=O)Nc3ccc(N=C(N)N(CC)CC)cc3)cc2)cc1
dose: 3.12 mg/kg/injection, schedule: Q01DX009 (ip), vehicle: saline
  T/C: 151 % of control
[11]
  T/C: 196 % of control
[7]
  T/C: 105 % of control

## CCC(CO)NC(=O)/C=C/c1cc(OC)ccc1OC (configuration not stated)
[12]
  T/C: 91 % of control

## NNc1n[nH]c(=S)n1N
dose: 6.25 mg/kg/injection, schedule: Q04DX003 (ip), vehicle: saline with Tween-80
  T/C: 104 % of control
dose: 12.5 mg/kg/injection, schedule: Q04DX003 (ip), vehicle: saline with Tween-80
  T/C: 100 % of control
[13]
  T/C: 95 % of control

## CCOP(=O)(NCCCOC)OCC
dose: 3.5 mg/kg/injection, schedule: Q01DX009 (ip), vehicle: saline
  T/C: 105 % of control
dose: 7.0 mg/kg/injection, schedule: Q01DX009 (ip), vehicle: saline
  T/C: 120 % of control
dose: 9.0 mg/kg/injection, schedule: Q04DX003 (ip), vehicle: saline
  T/C: 122 % of control
dose: 14.0 mg/kg/injection, schedule: Q01DX009 (ip), vehicle: saline
  T/C: 115 % of control
dose: 14.0 mg/kg/injection, schedule: Q04DX003 (ip), vehicle: saline
  T/C: 104 % of control
dose: 30.0 mg/kg/injection, schedule: Q01DX009 (ip), vehicle: saline
  T/C: 88 % of control
dose: 45.0 mg/kg/injection, schedule: Q01DX009 (ip), vehicle: saline
  T/C: 88 % of control

## CC(C)(C)[Si](C)(C)OC(=O)NCCCl
dose: 100.0 mg/kg/injection, schedule: Q04DX002 (ip), vehicle: saline with Tween-80
  T/C: 100 % of control
dose: 200.0 mg/kg/injection, schedule: Q04DX002 (ip), vehicle: saline with Tween-80
  T/C: 109 % of control
dose: 400.0 mg/kg/injection, schedule: Q04DX002 (ip), vehicle: saline with Tween-80
  T/C: 118 % of control

## CNC1C(O)C(NC)C2OC3(O)C(=O)CC(C)OC3OC2C1O (configuration not stated)
[11]
  T/C: 112 % of control
[7]
  T/C: 106 % of control
[8]
  T/C: 97 % of control
[9]
  T/C: 106 % of control

## C/C(=C/B1OCCO1)CCl
dose: 100.0 mg/kg/injection, schedule: Q04DX003 (ip), vehicle: saline sonified
  T/C: 105 % of control
dose: 200.0 mg/kg/injection, schedule: Q04DX003 (ip), vehicle: saline sonified
  T/C: 100 % of control
dose: 400.0 mg/kg/injection, schedule: Q04DX003 (ip), vehicle: saline sonified
  T/C: 110 % of control

## OCCCN1CNC(=S)NC1
[10]
  T/C: 108 % of control
[1]
  T/C: 108 % of control

## CCOc1ccc(/C=N/NS(=O)(=O)c2ccc(C)cc2)cc1
[3]
  T/C: 100 % of control
[4]
  T/C: 92 % of control
[5]
  T/C: 100 % of control
[6]
  T/C: 100 % of control

## CC(=O)OCC(CCn1ccc(=O)[nH]c1=O)COC(C)=O
[14]
  T/C: 90 % of control
[15]
  T/C: 98 % of control
[16]
  T/C: 100 % of control
[17]
  T/C: 98 % of control
[12]
  T/C: 90 % of control
dose: 400.0 mg/kg/injection, schedule: Q04DX003 (ip), vehicle: saline with Tween-80
  T/C: 100 % of control

## Cc1ccc(N(N)c2ccc(C)cc2)cc1
dose: 50.0 mg/kg/injection, schedule: Q01DX009 (ip), vehicle: Klucel (hydroxypropylcellulose) (HPC)
  T/C: 100 % of control
dose: 50.0 mg/kg/injection, schedule: Q04DX003 (ip), vehicle: Klucel (hydroxypropylcellulose) (HPC)
  T/C: 107 % of control
[2]
  T/C: 118 % of control
[3]
  T/C: 107 % of control
[4]
  T/C: 113 % of control
[5]
  T/C: 100 % of control

## NC(=S)N/N=C/c1c[nH]c2ccccc12
[3]
  T/C: 100 % of control
[5]
  T/C: 113 % of control
[6]
  T/C: 104 % of control

## CCn1cnc(-c2ccccc2)c1-c1ccccc1
dose: 12.5 mg/kg/injection, schedule: Q01DX009 (ip), vehicle: saline with Tween-80
  T/C: 100 % of control
dose: 25.0 mg/kg/injection, schedule: Q01DX009 (ip), vehicle: saline with Tween-80
  T/C: 104 % of control
dose: 50.0 mg/kg/injection, schedule: Q01DX009 (ip), vehicle: saline with Tween-80
  T/C: 100 % of control

## CC(C)(C)NC(=S)Nc1ccc2c(c1)nc(-c1ccccc1)c1cc(NC(=S)NC(C)(C)C)ccc12
[15]
  T/C: 111 % of control
[17]
  T/C: 100 % of control

## CCCCCCC(=O)CCCC(C)CCCC(C)C (configuration not stated)
[2]
  T/C: 100 % of control
[4]
  T/C: 109 % of control
dose: 400.0 mg/kg/injection, schedule: Q01DX009 (ip), vehicle: Klucel (hydroxypropylcellulose) (HPC)
  T/C: 118 % of control

## O=S1(=O)CC2(N3CCOCC3)CCCCC21 (configuration not stated)
[14]
  T/C: 100 % of control
[16]
  T/C: 100 % of control
[12]
  T/C: 112 % of control

## OC1CC[N-]CC1.OC1CC[N-]CC1.[Cl][Pt+2]([Cl])([Cl])[Cl]
[13]
  T/C: 109 % of control
dose: 50.0 mg/kg/injection, schedule: Q04DX003 (ip), vehicle: saline with Tween-80
  T/C: 102 % of control
